{"source": "paper PMC6274922", "about": "“Defined Small Molecules Produced by Himalayan Medicinal Plants Display Immunomodulatory Properties” (International Journal of Molecular Sciences, 2018)", "key": {"[1]": {"system": "DC2.4 murine dendritic cell line", "type": "cell-based", "conditions": "for Median Fluorescence Intensity (MFI) of surface MHC-I expression: representative FACS plots, DC2.4 cells, media only control MFI 732"}, "[2]": {"system": "DC2.4 murine dendritic cell line", "test": "Gene expression analysis by RT-qPCR in DC2.4 cells", "type": "cell-based, mouse", "conditions": "for modulation of gene expression, in words: DC2.4 cells, mRNA correlated with FACS RFI (Figure 3)", "method": "The following day, cells were harvested and 20,000 live cells from each condition were sorted by FACS into RLT buffer and RNA extracted for mRNA analysis by RT-qPCR. The relative gene expression for each gene was calculated for each compound and compared to the media control. We then correlated gene expression with protein expression represented by the FACS RFI (Figure 3). […] The SUM of the changes for all genes and proteins relative to the media-only control is summarized in the bottom right corner of Figure 3 SUM.\nDC2.4 cells were co-cultured overnight with test compounds as described above. The following day, cells were harvested and 20,000 live cells from each condition were sorted by FACS into RLT buffer and stored at −70 °C. On the day of extraction, frozen cell lysates were thawed quickly on ice and mRNA was extracted using the RNEasy micro kit (Qiagen, Chadstone Centre, VIC, Australia) according to the manufacturer’s instructions. cDNA was synthesized using oligo-dT and AMVRT (Promega, Sydney, Australia) according to the manufacturer’s instructions. Gene expression was measured using individual Taqman gene expression assays (Applied Biosystems, Foster City, CA, USA) and Platinum Taq polymerase (Life Technologies, Carlsbad, CA, USA) in a 15 μL volume reaction using a Rotorgene 3000 PCR machine (Corbett Research, Mortlake, Australia) with the following conditions: 2 min at 50 °C for calibration of fluorescence gain values, then denaturing at for 2 min at 95 °C, followed by 45 cycles of 5 s at 95 °C and 30 s at 60 °C. Gene expression was quantified relative to a standard curve generated from a titration of cloned cDNA and relative gene expression was calculated by dividing the expression value of the test sample by that of the cells grown in media only. All assays were conducted in triplicate."}, "[3]": {"system": "DC2.4 murine dendritic cell line", "test": "Combined FACS + PCR score of immunomodulation in DC2.4 cells", "type": "cell-based, mouse", "method": "The following day, cells were harvested and 20,000 live cells from each condition were sorted by FACS into RLT buffer and RNA extracted for mRNA analysis by RT-qPCR. The relative gene expression for each gene was calculated for each compound and compared to the media control.\nDC2.4 cells (4000 cells in exponential phase/200 µL) were cultured in 96-well flat bottom plates overnight with a titration of the test compound in media (stock concentration of 1 mg/mL and further titrated in tissue culture media at 4 mid-log dilutions starting at 100 µg/mL) or media only (modified DMEM, 50 µM 2-mercaptoethanol and 216 mg/L L-glutamine, 10% heat-inactivated FCS). Each compound was tested twice, in replicate assays. […] The RFI (relative fluorescence intensity) for each parameter was calculated by dividing the median fluorescence intensity (MFI) of the test sample by that of the control (media-only) samples.\nDC2.4 cells were co-cultured overnight with test compounds as described above. […] Gene expression was quantified relative to a standard curve generated from a titration of cloned cDNA and relative gene expression was calculated by dividing the expression value of the test sample by that of the cells grown in media only. […]"}, "[4]": {"system": "immortalized non-cancerous H69 human cholangiocyte cell line", "test": "in vitro", "protocol": "(§1) The immortalized non-malignant human cholangiocyte cell line H69 is a SV40-transformed human bile duct epithelial cell line originally derived from a normal liver harvested for transplantation. […] Cytotoxicity screening of the test compounds against the H69 cell line was performed using an xCELLigence SP system (ACEA Biosciences Inc., San Diego, CA, USA) as described by us previously. All experiments were carried out as per the manufacturer’s instructions with 0.25–60 min read intervals using the real time cell assay (RTCA) software (ACEA Biosciences Inc., USA). All assays were conducted in triplicate. Inter-well spaces were filled with 100 µL of culture medium or PBS to prevent evaporation. The E-plates containing cells were seeded at 5000 cells/well and incubated overnight at 37 °C with 5% CO2. The cells were then treated with prepared concentrations (50, 100, 500 µg/mL) of the test compounds and the viability of the cells was monitored continually for 24 h.\n(§2) We determined the IC50 values of test compounds based on the normalised cell index (nCI) for cells, as described previously. Briefly, the 24 h nCI relative to the negative DMSO treated controls (deemed 100%) on the y-axis was plotted against the log concentration value x-axis."}, "[5]": {"test": "in vitro", "conditions": "human", "protocol": "as §1, §2"}, "[6]": {"system": "lung carcinoma (A549)", "parameters": "method as in PMID 29555944", "conditions": "cited from earlier work"}, "[7]": {"system": "HT-29 cancer cell lines", "parameters": "method as in PMID 29555944", "conditions": "cited from earlier work"}, "[8]": {"system": "multi-drug resistant Plasmodium falciparum", "conditions": "cited from earlier work"}, "[9]": {"system": "HL60", "parameters": "method as in PMID 9584334", "conditions": "in vitro; cited from earlier work"}, "[10]": {"system": "A431 epithelial cancer cell lines", "parameters": "method as in PMID 9584334", "conditions": "in vitro; cited from earlier work"}}}
{"molecule": "protopine [Compound 8]", "values": [{"measurement": "FACS SUM", "setting": "[1]; sum of the RFI of the 7 surface markers", "result": 9.95}, {"measurement": "PCR SUM", "setting": "[2]; sum of the relative expression of the 7 genes", "result": 10.01}, {"measurement": "Ave.", "setting": "[3]; average of FACS and PCR values", "result": 1.43}, {"measurement": "SUM FACS + PCR", "setting": "[3]; sum of all FACS RFI and PCR relative expression values", "result": 19.96}, {"measurement": "IC50 (cytotoxicity)", "setting": "[4]", "result": 9, "unit": "mg/L"}, {"measurement": "cell toxicity", "setting": "[4]; H69 cells, at 24 h", "result": 68, "unit": "%"}, {"measurement": "cell toxicity", "setting": "[4]; H69 cells, from 6 h", "result": 23, "unit": "%"}]}
{"molecule": "O=c1cc(-c2ccc(O)c(O)c2)oc2cc(O)cc(O)c12", "note": "[Compound 6, luteolin]", "values": [{"measurement": "IC50 at 24 h", "setting": "[5]", "result": 30, "unit": "mg/L"}]}
{"molecule": "COc1cc2c(cc1O)[C@@H]1Cc3ccc(OC)c(O)c3CN1CC2", "note": "[Compound 10, scoulerine]", "values": [{"measurement": "Median Fluorescence Intensity (MFI) of surface MHC-I expression", "setting": "[1]", "result": 1582}, {"measurement": "modulation of gene expression, in words", "setting": "[2]", "result": "strong up-regulator of several important genes including MHC-I, CD80 and CD86"}, {"measurement": "cytotoxic activity, in words", "setting": "[6]", "result": "significant cytotoxic activity"}, {"measurement": "cytotoxic activity, in words", "setting": "[7]", "result": "significant cytotoxic activity"}, {"measurement": "antimalarial activity, in words", "setting": "[8]", "result": "potent antimalarial drug lead compound"}]}
{"molecule": "CC#CC#C/C=C1\\C=CC2(CCCO2)O1", "note": "(centres unmarked) [Compound 5, (E)-spiroether]", "values": [{"measurement": "IC50 at 24 h", "setting": "[5]", "result": "< 1", "unit": "mg/L"}, {"measurement": "cell death", "setting": "[4]; H69 cells, from 6 h with 100 µg/mL", "result": 96.5, "unit": "%"}]}
{"molecule": "COc1c2ccoc2cc2oc(=O)ccc12", "note": "[Compound 13, bergapten]", "values": [{"measurement": "Median Fluorescence Intensity (MFI) of surface MHC-I expression", "setting": "[1]", "result": 304}, {"measurement": "modulation of gene expression, in words", "setting": "[2]", "result": "suppression of expression of some genes, and notably MHC-I at both the gene and protein level"}, {"measurement": "IC50 at 24 h", "setting": "[5]", "result": 126, "unit": "mg/L"}, {"measurement": "anti-proliferative activity, in words", "setting": "[9]", "result": "anti-proliferative activity"}, {"measurement": "anti-proliferative activity, in words", "setting": "[10]", "result": "anti-proliferative activity"}]}
